Measured values reported in publication PMC8399565, “Fluorescence Cross-Correlation Spectroscopy Yields True Affinity and Binding Kinetics of Plasmodium Lactate Transport Inhibitors” (Pharmaceuticals, 2021).
Entries after “also recorded” stand apart in the source; their conditions may differ. Where two headings read alike, the source gives them in different places.

Tests used:
[1] = target: T1, PfFNT G107S-GFP (Plasmodium falciparum, UniProt O77389, G107S); experiment: Live cell confocal imaging, co-localization with PfFNT G107S-GFP in HEK293 cells; assay type: cell-based; settings: for competition of BH267.meta-DY647 membrane localization by unlabeled compound: 100 µM unlabeled compound; for co-localization / membrane localization: 50 nM probe, 0.05% Triton X-100
T1 construct: The DNA of full-length PfFNT from Plasmodium falciparum 3D7 was cloned as a C-terminal GFP fusion; expressed in transfected cells; intact cells for imaging, LMNG-solubilized membranes for FCCS
Description: A PfFNT G107S mutant generated by sublethal dosing of BH296 in vitro parasite cultures has gained attention as it confers resistance against BH296, but the introduction of a scaffold nitrogen atom (BH267.meta; Figure 1) restored the effectiveness of the inhibitor [11]. The G107S mutation site is located at the cytoplasmic entrance of PfFNT and narrows the transport path precluding the binding of BH296 via sterical hinderance of the phenyl moiety of the compound. Exchange of the carbon atom in the meta-position of the aromatic ring of BH296 for a nitrogen atom introduced a hydrogen bond acceptor site for the serine hydroxyl of the resistance mutation and restored binding to the mutant PfFNT G107S. We analyzed the interaction of BH267.meta by cellular imaging. For this, we generated labeled BH267.meta-DY647 (Figure 1), expressed PfFNT G107S in HEK cells, and incubated the cells with BH296-DY647 or BH 267.meta-DY647 after treatment with 0.05% Triton X-100.
Whether these differences in signal intensity can be attributed to different affinities, to expression levels of the target protein, or to the cellular localization cannot be concluded from imaging-based experiments but requires biophysical analytical methods. However, the observation confirms previous findings that show the activity of BH267.meta on PfFNT G107S.
(§1) The confocal laser scanning microscopy was performed on an LSM 510 confocal microscope connected to an Axiovert 200M equipped with a C-Apochromat 40×/1.2 W water immersion objective (Carl Zeiss, Germany). The red fluorophore (Dy-647) was excited using a 633 nm helium–neon laser, whereas the green fluorophore (GFP) was excited using a 488 nm argon-ion laser.

[2] = target: T2, PfFNT wt-GFP (Plasmodium falciparum, UniProt O77389); experiment: Time-resolved FCCS binding kinetics
T2 construct: The DNA of full-length PfFNT from Plasmodium falciparum 3D7 was cloned as a C-terminal GFP fusion; expressed in transfected cells; intact cells for imaging, LMNG-solubilized membranes or lysates for FCCS
Protocol: To complete our biophysical interaction analysis, we determined the rate constants of both labeled inhibitors to PfFNT wildtype. This is of relevance because inhibitors with similar affinities but different association and dissociation rates can show different activity profiles. […] For measuring the kinetics of direct interactions between PfFNT and the labeled inhibitor molecules, we applied the target at a concentration of 10 nM and chose ligand concentrations that exceeded the number of target molecules by […]. In this way, we ensured that throughout the course of the kinetic measurement, the depletion of free ligands remained insignificant. First, time resolved binding curves were recorded for ligand concentrations of 148, 133, 115, 100, 81, 76, 44, 25 nM (BH296) and 120, 102, 76, 74, 65, 58, 46, 32 nM (BH267.meta), respectively, to obtain kobs values (Figure 5). Then kon and koff values were calculated by linear regression. Both inhibitors bind and dissociate with equal rate constants (Table 3) and are characterized by a rapid association. Equilibrium is reached within less than 1 min at nanomolar inhibitor concentrations. To cross-validate the reliability of our kinetic determinations, we compared the KD values derived from saturation binding assays with affinities deduced from the kinetic rate constants by dividing koff by kon.
Figure 5 Kinetic studies of the fluorescent probes BH296-DY647 and BH267.meta-DY647 with PfFNT-GFP by FCCS. Time resolved measurements of the interactions were carried out to obtain kobs-values. The kobs-values were plotted versus concentrations of the fluorescent probe. The solid line represents the best linear regression, and kon and koff of both fluorescent probes were estimated from the slope and y-intercept, respectively. kon and koff values of BH296-DY647 and BH267.meta-DY647 are summarized in Table 3.
FCCS measurements were conducted in 384-well glass-bottom plates (cat. no PS96B-G175, SWISSCI, Switzerland) using an Insight plate reader (Evotec Technologies, Germany) fitted with a U-Apo300 40x water immersion lens, NA 1.15 (Olympus, Japan). The 488 nm laser line of an argon-ion laser and the light of a 633 nm helium–neon laser were used for excitation. Fluorescence fluctuations were recorded for 8 s with 12 repetitions and analyzed afterward using FCS+plus Analyze 1.1P (Evotec technologies, Version 1.2.5g). FCCS analysis was carried out as described previously. Briefly, for measuring the dissociation constant (KD), a titration series of 12 dilutions was prepared, where the concentration of the lysates obtained from HEK cells expressing GFP-fusions of PfFNT WT and G107S was kept constant, and the concentration of the labeled binding partner (BH296-DY647 and BH267.meta-DY647, respectively) was varied. The IC50 values were calculated by plotting the concentration from the dual labeled complex against the concentration of the competitor titrated over a concentration range from 10 µM to 10 pM. Samples were incubated for 1 h at room temperature prior to FCCS measurements to allow the formation of drug target complexes. From the resulting IC50 values, the Ki values were obtained by application of the Cheng Prusoff equation [17]. To assess the rate constants, time-resolved measurements were carried out at different concentrations of the labeled ligand. […] All KD and IC50 values, as well as kinetic parameters, were determined from three independently repeated experiments. The figures show one representative measurement; however, the calculated KD, Ki, kon and koff values are presented as an average of the three measurements ± SD. Error bars denote ± SEM.

[3] = target: T3, PfFNT-GFP (Plasmodium falciparum, UniProt O77389); experiment: Live cell confocal imaging, co-localization with PfFNT-GFP in HEK293 cells; assay type: cell-based; settings: for co-localization / membrane localization: probe after 0.05% Triton X-100 permeabilization, 0.5-5 min
T3 construct: The DNA of full-length PfFNT from Plasmodium falciparum 3D7 was cloned as a C-terminal GFP fusion; expressed in transfected cells; intact cells for imaging, LMNG-solubilized membranes or lysates for FCCS
Protocol: BH296-DY647 was added at a concentration of 50 nM to cultured HEK cells stably expressing PfFNT-GFP to test for co-localization of the compound with the target at the plasma membrane by confocal imaging. […] As the cytoplasmic domain of the transporter is inaccessible for the compound, we next explored possibilities to permeabilize the plasma membrane and to retain cell viability for the time of incubation. For this, we used Triton X-100 at a final concentration of 0.05%, as described previously to allow for diffusion of compounds into the cell. […] A prolonged incubation was impeded by incipient cell disintegration and membrane blebbing. We next set out to test the specificity of binding by analyzing the interaction of labeled BH296 with its unlabeled parental compound.
as §1

T1 sequence (O77389 whole entry G107S, the tested form may be a part): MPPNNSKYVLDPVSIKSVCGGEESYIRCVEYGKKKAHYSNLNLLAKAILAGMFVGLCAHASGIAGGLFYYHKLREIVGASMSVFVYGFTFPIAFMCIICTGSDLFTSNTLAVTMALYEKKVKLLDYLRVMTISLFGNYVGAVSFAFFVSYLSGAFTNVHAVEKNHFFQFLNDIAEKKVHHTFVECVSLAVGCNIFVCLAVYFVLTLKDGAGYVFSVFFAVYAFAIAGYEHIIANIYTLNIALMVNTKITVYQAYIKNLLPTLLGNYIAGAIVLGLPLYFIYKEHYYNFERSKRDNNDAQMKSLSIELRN
T2 sequence (O77389 whole entry, the tested form may be a part): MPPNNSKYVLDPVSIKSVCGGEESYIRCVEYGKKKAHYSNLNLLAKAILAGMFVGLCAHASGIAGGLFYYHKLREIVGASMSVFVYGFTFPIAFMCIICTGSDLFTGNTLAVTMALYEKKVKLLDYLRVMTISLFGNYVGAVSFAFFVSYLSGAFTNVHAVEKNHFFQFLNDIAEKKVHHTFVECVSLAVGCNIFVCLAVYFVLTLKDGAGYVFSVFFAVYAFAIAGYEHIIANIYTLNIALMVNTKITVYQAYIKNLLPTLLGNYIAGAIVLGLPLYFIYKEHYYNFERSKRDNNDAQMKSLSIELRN
T3 sequence (O77389 whole entry, the tested form may be a part): as above

Compound | competition of BH267.meta-DY647 membrane localization by unlabeled compound [1] | Kd ([2]; koff divided by kon, read-out: KD (Kinetics)) [µM] | co-localization / membrane localization [3] | Kd [2] [µM] | koff [2] [s⁻¹] | kon [2] [M⁻¹ s⁻¹] | co-localization / binding at plasma membrane ([3]; 50 nM probe, absence of Triton X-100, up to 1 h) | co-localization / membrane localization [1] | competition of labeled tracer binding by unlabeled compound ([3]; preincubation with 100 µM unlabeled compound, tracer BH296-DY647)
O=C(/C=C(\O)C(F)(F)C(F)(F)F)c1cccnc1 [BH267.meta] | prevents membrane localization; also recorded: could be competed | 0.112 | binds efficiently |  |  |  |  |  | 
CCN1/C(=C/C=C/C=C/C2=[N+](CC)c3ccc(S(=O)(=O)O)cc3C2(C)CCCC(=O)NCCOCCOCCOCCOCCC(=O)NCCCOc2ccc(C(=O)/C=C(\O)C(F)(F)C(F)(F)F)cc2)C(C)(C)c2cc(S(=O)(=O)[O-])ccc21 (centres unmarked) [BH296-DY647] |  |  | clearly visible | 0.113 ± 0.002 | 0.0311 | 278000 | No co-localization; also recorded: could not be observed |  | 
CCN1/C(=C/C=C/C=C/C2=[N+](CC)c3ccc(S(=O)(=O)O)cc3C2(C)CCCC(=O)NCCOCCOCCOCCOCCC(=O)NCCCOc2ccc(C(=O)/C=C(\O)C(F)(F)C(F)(F)F)cn2)C(C)(C)c2cc(S(=O)(=O)[O-])ccc21 (centres unmarked) [BH267.meta-DY647] |  |  | localizes with PfFNT wildtype | 0.112 ± 0.005 | 0.0297 | 268000 |  | co-localizes; also recorded: clear membrane stain | 
O=C(C=C(O)C(F)(F)C(F)(F)F)c1ccc(O)cc1 [BH296, 4,4,5,5,5-pentafluoro-3-hydroxy-1-(4-hydroxyphenyl)pent-2-en-1-one] | cannot compete |  |  | 0.113 |  |  |  | did not localize to membranes | prevented binding of the labeled tracer; also recorded: completely abrogated binding
